Source: a melting point compilation (Tetko et al.; mined from patent text by program, amines drawn as free bases though some values may be those of a salt)

melting point | Compound
223 to 225 °C | Cc1c(-c2ccccc2)sc(N2C(=O)c3ccccc3C2=O)c1C(=O)c1ccc(Cl)cc1
249 to 251 °C | O=C1Nc2cc(F)ccc2C12COc1cc3c(cc12)CCO3 (centres undefined)
135 to 136 °C | COc1ccc(O)c(C2(OC)Sc3ccccc3N(C)C2=O)c1 (centres undefined)
158 to 160 °C | CS(=O)(=O)N1CCC(NC(=O)N(CCCN2CCC(Cc3ccccc3)CC2)c2ccccc2)CC1
159 to 160 °C | CNc1cccc(-c2ccc3c(C(N)=O)nn(-c4ccc(S(N)(=O)=O)cc4)c3c2)c1
156 to 157 °C | CCCNc1nc(C)nc2c1nnn2-c1ccc(C(C)C)cc1Br
232 to 234 °C | Cc1oc2c(C)c(C)c(N3C(=O)c4ccccc4C3=O)c(C)c2c1-c1ccc(C(C)C)cc1
> 300 °C | COc1ccc2c(c1)Cc1c([nH]cnc1=O)N2
171 °C | CC(C)(C)c1ccc(C(=O)c2ccc3n2Cc2ccccc2N(C(=O)COc2ccc(Cl)cc2)C3)cc1
112 °C | CCOC(=O)C(C)(Cc1cccc(OCCN2CCCCC2)c1)S(=O)(=O)c1ccc(OC)cc1 (centres undefined)
170 to 171 °C | CN(C(=O)Nc1ccc2ccccc2c1)c1cccc(-c2ccc(CCC(=O)O)cc2)c1
163 to 164 °C | CCOc1ccc(NC(=O)NCCc2ccccn2)cc1
64 to 66 °C | CNC(=O)CCCCCCCCn1ccnc1
157 to 158 °C | Cc1nn(-c2ccc(C(F)(F)F)cn2)cc1CO
180 to 182 °C | CCN1C(=O)OCC1Cc1ccncc1 (centres undefined)
142 to 144 °C | CCOC(=O)c1cnc2snc(C)c2c1N(Cc1cccnc1)S(=O)(=O)c1ccc(OC)cc1
80 to 81 °C | NNC(=O)CCc1cccc(C(F)(F)F)c1
> 325 °C | CSc1cnc2cc(-c3ccccc3)sc2c1O
88 to 89 °C | CCOC(=O)c1ccc2occ(-c3ccc(SC)cc3)c2n1
184 to 185 °C | Nc1c(-c2cc(Cl)ccc2O)c2cc(Cl)ccc2[nH]c1=O
122 to 123 °C | Cc1cc(CCCCCOc2c(Cl)cc(-c3nnn[nH]3)cc2Cl)on1
167 to 170 °C | COc1cn(-c2cccc(C(F)(F)F)c2)nc(-n2ccnc2-c2ccccc2)c1=O
201 to 205 °C | CCCn1c(=O)c2[nH]cnc2n(CCC)c1=O
261 to 266 °C | NC(=O)c1cc(Br)c(O)c(Br)n1
198 °C | CN1C(=O)C(=O)N(Cc2ccccc2)CC1(CCO)c1ccc(Cl)c(Cl)c1 (centres undefined)
83 to 84 °C | COC(=O)C(Oc1ccc(C(F)(F)F)cc1)c1ccc(OCCCOc2ccc(Cl)cc2)cc1 (centres undefined)

melting point | Compound
61.5 to 63 °C | COC(=O)CCC(=O)c1ccc(C)cc1OCC1CO1 (centres undefined)
101 °C | O=C(O)CC1(CCCCCCCCC2(CC(=O)O)CC2)CC1
127 to 128 °C | COC1(OC)SC(c2nccs2)=C(C)NC1=O
101 to 103 °C | Cc1nc(NC(=O)OCC[Si](C)(C)C)cs1
131 to 132 °C | COc1ccnc(CCC(=O)O)c1
120 °C | COc1ccccc1N1CCN(CC(O)COc2cccc3c2CCCC3=O)CC1 (centres undefined)
189 to 191 °C | Cc1ccc(-n2c(=O)nc(N(C)C)n(C)c2=O)cc1C
110 to 127 °C | OCCN(CCO)Cc1ccc(-c2cc3ncnc(Nc4ccc5[nH]ccc5c4)c3s2)cc1
99 to 101 °C | O=Cc1cc(I)ccc1O
212 to 214 °C | CC(=O)C1=C(Nc2ccc(C3=NNC(=O)CC3)cc2)CC(C)(C)CC1=O
207 to 209 °C | OC1CC=CCC1N1CCN(C2CC=CCC2O)CC1 (centres undefined)
235 °C | Nc1ccn(C2COC(CO)C2O)c(=O)n1 (centres undefined)
107 to 109 °C | c1ccc(N2c3ccccc3Sc3ccccc32)nc1
172 to 173 °C | COC(=O)[C@H]1C[C@@H](NC(=O)OC(C)(C)C)c2c(Cl)cc(Cl)cc2N1 (relative stereo)
169 to 170 °C | COC(=O)COc1ccc(C(=O)NN(C)C(=O)c2ccc(C(N)=S)cc2)cc1
148 °C | CCN(CC)CC1CN=C(NC(=O)Nc2ccccc2)O1 (centres undefined)
172 to 176 °C | O=[N+]([O-])c1ccc2onc(-c3ccccc3O)c2c1
120 to 121 °C | CCN1C(=O)c2cnc(-c3ccccc3)nc2N(C(=O)CN(C(C)C)C(C)C)c2ccccc21
121 to 122 °C | CC(=O)Cc1ccc(OCC(O)CN2CCN(c3ccccc3)CC2)cc1 (centres undefined)
168 °C | CC(=O)NC(=O)c1cc([N+](=O)[O-])cnc1C(Br)Br
236 to 238 °C | O=C(Nc1ccc2nc(CN3CCOCC3)ccc2c1)c1ccc(-c2ccc(Cl)cc2)cc1
194 to 198 °C | CN(CC(=O)O)CC(=O)Nc1cc(Cc2n[nH]c(=O)c3ccccc23)ccc1F
232 to 234 °C | CCOc1cc2c(cc1OCC)[C@@H]1CCCC[C@@H]1N=C2c1ccc(O)cc1 (racemic)
77 to 80 °C | Cc1ccc(S(=O)(=O)Oc2cc(Cl)c(C=O)c(Cl)c2)cc1
141 to 143 °C | COCc1ncnc(O)c1OC
201 to 202 °C | CCN1c2ccccc2NC(=O)c2cscc21

melting point | Compound
222 to 223 °C | O=C(NCc1ccc(Cl)cc1)c1cn2c3c(cc(I)cc3c1=O)CC2CO (centres undefined)
83 to 84 °C | CC(C)N(CCCNC(=O)Cn1ncc(-c2ccccc2)c1-c1ccccc1)C(C)C
216 to 217 °C | Cc1nc(N2CCN(Cc3ccc(C(F)(F)F)cc3)C2=O)sc1C(N)=O
124 to 125 °C | Cc1cnc(CNC(=O)CCc2cnoc2-c2ccc(Cl)cc2)cn1
175 to 184 °C | O=C(Nc1ccnc(C(=O)NO)c1)c1ccccc1
92 to 94 °C | N#Cc1ccnc(CO)c1
136 °C | C[Si](C)(C)C#Cc1cnn2c(C(F)(F)F)cc(-c3ccc(C(F)(F)F)cc3)nc12
140 to 142 °C | Nc1cnccc1CCCOc1cccnc1Oc1cccc(Cl)c1
288 to 290 °C | N#CC1=C2C(=NC1=O)c1c(Sc3ccc(N)cc3)ccc3c(Sc4ccc(N)cc4)ccc2c13
95 to 97 °C | CCOCn1c(Sc2ccc(Cl)c(Cl)c2)cc(C#N)c1-c1ccc(Cl)cc1
98 °C | CC1(C)CCOC1(O)C(Cc1ccc(Cl)cc1)n1cncn1 (centres undefined)
170 to 177 °C | COc1cc2c(cc1OC)-c1cc(OC)c(OC)c3c1C(C2)CN(C)C3 (centres undefined)
272 to 275 °C | Nc1cc2c(Nc3ccc(Br)c(Cl)c3)ncnc2cn1
102 to 104 °C | CC(C)(O)C(O)c1ccc(C(=O)CCC(=O)/C(=C/C2CCOCC2)c2ccc(S(=O)(=O)C3CC3)cc2)nc1 (centres undefined)
154 to 156 °C | CCCCc1nn(-c2cc(N)ccc2C(F)(F)F)c(=O)n1Cc1ccc(-c2ccccc2S(=O)(=O)NC(=O)OC(C)(C)C)cc1
163 °C | COc1ccc(Sc2cnnc3ccccc23)cc1
82.5 to 84.9 °C | CCCCCN(CCC12CC3CC(CC(C3)C1)C2)C(=O)NCC(C)(C)Cc1ccncc1
225 to 226 °C | COc1cc(N)c(Cl)cc1C(=O)NN1CCN(Cc2cccs2)CC1
38 to 39 °C | CCCc1ccc(CCCOc2c(C)cc(-c3nnn(C)n3)cc2C)o1
296 to 298 °C | Fc1ccc(CNc2nc(-n3cnc4ccccc43)nc(-n3cnc4ccccc43)n2)cc1
100 to 103 °C | COc1cccc(C(=NO)c2sccc2Br)c1
204 °C | Cn1cncc1C(C)(c1ccc(Cl)cc1)c1ccc2c(c1)c(-c1cccc(Cl)c1)cc(=O)n2C (centres undefined)
106 °C | CCCc1c2c(c(C(C)(C)C)c(OC(C)=O)c1C(C)(C)C)CC(C)(C)O2
146 to 148 °C | CC(C)(CO)NCC(=O)N1C[C@@H](F)C[C@H]1C#N
86 to 88 °C | COCc1oc(-c2nn(Cc3ccccc3F)c3ccccc23)nc1C
137 °C | CCCC(C(N)=O)C(=O)O (centres undefined)

melting point | Compound
236 °C | NCCCCCCC(=O)Nc1cccc(C(=O)NCCC(=O)O)c1
176 °C | COC(=O)C1=C(C#N)NC(C)=C(C(=O)OC(C)C)C1c1ccccc1[N+](=O)[O-] (centres undefined)
71 to 74 °C | COC(=O)c1snc(-c2cc(C(F)(F)F)cc(C(F)(F)F)c2)c1C(=O)OC
47 to 48.5 °C | O=C(O)CCCCCCC1=CC(O)CC1=O (centres undefined)
192 to 193 °C | CCOc1c(Cc2c[nH]c3ccccc23)[nH]c(=O)c(CC(C)C)[n+]1[O-]
150 to 153 °C | CCOCc1nc2c(N)nc3ccc(OCc4ccccc4)cc3c2n1CCCCNC(=O)N1CCOCC1
147 to 148 °C | BrCc1cc2ccccc2cc1CBr
210 to 211 °C | Cc1cc(Nc2ccccc2C(=O)O)n(C)n1
47 to 49 °C | CN(CCCNc1ncc(Cc2ccccc2Cl)c(=O)[nH]1)c1ccccn1
100 to 103 °C | CCC(Cc1ccc(C(C)C(=O)O)cc1)C(C)O (centres undefined)
76.9 to 77.7 °C | COC(CCl)NC(=O)c1ccccc1 (centres undefined)
122 to 123 °C | COC(=O)C=CCOc1ccc(F)c(C(N)=O)c1F
188 to 190 °C | CNC(=S)NCc1nc(C(C)C)c(Sc2cc(Cl)cc(Cl)c2)n1C
209 to 211 °C | Nc1cc(Cl)nc(C(=O)NOCc2ccc(F)cc2)c1Cl
219 to 220 °C | COc1ccc(CC(C(N)=O)S(C)(=O)=O)cc1C(=O)NCc1ccc(C(F)(F)F)cc1 (centres undefined)
159 to 161 °C | Cn1nnc(Cc2ccc(NC(=O)/C=C/c3cnn(C)c3-c3ccc(F)cc3)cc2)n1
153 to 155 °C | NC(=O)N(O)CCNC(=O)COc1cccc(Oc2ccccc2)c1
80 to 81 °C | Cc1cc2ccccc2nc1-n1cncn1
46 °C | CC1(C)CCC(C)(C)C1OS(C)(=O)=O
152 to 154 °C | CC(=O)c1csc(-c2nc3n(c2-c2ccncc2)CCC3)c1
76 to 77 °C | CCCCCCCC(=O)NCCCCO
56 to 58 °C | CCC(C)(CC)c1ccc(N)nn1
132 °C | CCN(CC)C(=O)C(C)c1cc(-c2ccccc2)nc2ccccc12 (centres undefined)
136 to 137 °C | CC1(C)CCC(=O)N(C2c3cc4nonc4cc3OC(C)(C)C2O)C1 (centres undefined)
136 to 137 °C | COCc1cc2c(-c3ccc(C(F)(F)F)n(C)c3=O)c(F)cc(Cl)c2o1
111 to 113 °C | COc1ccc(CCNC(=O)CN(C(C)=O)c2cccc(C(N)=O)c2)cc1OC
